We go through six molecules from patent publication US20120164128A1, “MEANS AND METHODS FOR COUNTERACTING POLYQ EXPANSION DISORDERS” (Academisch Medisch Centrum, priority 2009, published 2012).

One data set concerns polyQ peptides. As to the kind of experiment: Peptidase inhibitor study in cells co-expressing DnaJB6, Western blot against polyQ. Format: cell-based. The conditions noted are these: inhibitor in combination with DnaJB6, treated for eight hours, FIG. 8B. On the procedure:
(§1) Cytosolic extracts were generated by lysing cells with 0.1% Triton X-100 for 30 minutes at 4° C., and supernatant was used after spinning down the lysate. 20 μg of cytosolic protein lysates were separated by 18% SDS-PAGE and transferred to Protan nitrocellulose membranes. Membranes were blocked in 5% dry milk in TBS containing 0.3% tween and probed with anti-Polyglutamine 1C2 (MAB1574, Millipore). Preparation of SDS-soluble and SDS-insoluble protein fractions was described before (example 1 and Carra et al., 2008). For peptidase inhibitory studies, transfected cells were treated for eight hours with different peptidase inhibitors before lysates were generated for Western blotting.
To elucidate which clearance pathway led to the degradation of the polyQ peptides, several inhibitors were used in combination with DnaJB6 and DnaJB8. Cysteine proteases were inhibited by E-64, aspartyl proteases by pepstatin A, metalloproteases by bestatin, serine proteases by phenylmethylsulfonyl (PMSF), proteasomes were inhibited by MG-132 and macroautophagy was inhibited by 3-methyladenine (3-MA).
In general terms: Immunoblotting shows a protein as a band on a membrane.

In a further data set the test system is HEK293T cells. Description: Scoring of cells with fluorescent aggregates by fluorescence microscopy. The class given is cell-based, Human. On the procedure:
Human embryonic kidney cells (HEK293T) and Mel JuSo fibroblast cells where cultured in IMDM (GIBCO) supplemented with 10% FCS and penicillin/streptomycin/L-glutamine. The cells where transiently transfected with Fugene6 (Roche) and analyzed at indicated time-points after transfection. Mouse STHdh^+/+(Q7) cells (kindly provided by Marcy MacDonald) (Trettel et al, 2000) and N2A neuroblastoma cells were cultured in DMEM supplemented with 10% FCS and penicillin/streptomycin/L-glutamine. Neuronal cells where transiently transfected with Lipofectamine 2000 (Invitrogen). Mouse STHdh^+/+(Q7) cells were incubated at 32° C. For toxicity measurements, N2A cells were analyzed by FACS LSRII for GFP fluorescence 24 or 48 hours after transfection, and the percentage of GFP-positive cells was quantified.
HEK293T cells were transfected with indicated constructs and the percentages of aggregates were scored using an inverted fluorescence microscope (Leica DMR). For imaging, Mel Juso cells were transiently transfected with indicated constructs and images where obtained using a confocal microscope (Leica SP2) using a 63× objective. Note that some pictures show ‘over-exposed’ fluorescent aggregates in order to visualize non-sequestered, cytoplasmic staining. […]

In the next data set the test system is polyQ peptides (Q65). Description: SDS-soluble and SDS-insoluble fractions stained against polyQ. The class given is cell-based. The conditions noted are these: co-expression with Q65 peptides; for amount of polyQ peptides in the SDS-insoluble fraction: FIG. 8A. On the procedure:
Cytosolic extracts were generated by lysing cells with 0.1% Triton X-100 for 30 minutes at 4° C., and supernatant was used after spinning down the lysate. 20 μg of cytosolic protein lysates were separated by 18% SDS-PAGE and transferred to Protan nitrocellulose membranes. Membranes were blocked in 5% dry milk in TBS containing 0.3% tween and probed with 1:1000 anti-GFP (Molecular Probes), 1:100 anti-Ub (SIGMA) or the anti-Polyglutamine 1C2 (MAB1574, Millipore). Polyclonal Horseradish Peroxidase (HRP) conjugated secondary antibodies, anti-rabbit (Sigma) or anti-mouse (DAKO) were used 1:10.000 to detect the primary antibodies via Lumi-lightPLUS westernblotting substrate (Roche). Preparation of SDS-soluble and SDS-insoluble protein fractions was described before (Carra et al., 2008). Briefly, cells were trypsinized, homogenized, and heated for 10 min at 99° C. in sample buffer (70 mM Tris pH 6.8, 1.5% SDS, 20% glycerol) supplemented with 50 mM DTT 72 hours after transfection. Cell lysates were centrifuged for at least 30 minutes at 14.000 rpm at room temperature. Supernatants were used as SDS-soluble fraction to which 0.05% bromophenol blue was added. Pellets represented SDS-insoluble fractions and were dissolved in 100% formic acid, incubated 30 minutes at 37° C., lyophilized overnight in a speed vac (Eppendorf), and resuspended in a ¼ of the volume of sample buffer containing 0.05% bromophenol blue. Samples were separated on either 18% SDS-PAGE (anti-polyQ), or 12.5% SDS-PAGE (anti-GFP) and further treated as Western blots.
Cytosolic extracts were generated by lysing cells with 0.1% Triton X-100 for 30 minutes at 4° C., and supernatant was used after spinning down the lysate. 20 μg of cytosolic protein lysates were separated by 18% SDS-PAGE and transferred to Protan nitrocellulose membranes. Membranes were blocked in 5% dry milk in TBS containing 0.3% tween and probed with anti-Polyglutamine 1C2 (MAB1574, Millipore). Preparation of SDS-soluble and SDS-insoluble protein fractions was described before (example 1 and Carra et al., 2008). […]

Data set [1] relates to polyQ peptides derived from GFP-Ub-Q65. As to the kind of experiment: Western blot against polyQ (1C2) of cells expressing GFP-Ub-Q65 with altered TPPII activity. The conditions noted are these: for polyQ peptide levels: cells expressing GFP-Ub-Q65, TPPII co-expressed or inhibited, FIG. 10 panel A. Format: cell-based. On the procedure:
as §1
Large polyQ-peptides are preferably cleaved by endo-peptidases, as a few cleavages will result in smaller polyQ peptides below the disease-threshold that can be targeted by recycling amino-peptidases. To measure endo-peptidase activity against glutamines, we designed a probe containing 8 glutamines, flanked by a fluorophore (left) and a quencher (right). When the glutamines are cleaved, the quencher is released from the fluorophore, leading to fluorescence. Since the termini themselves are protected against exo-peptidases, only endo-peptidases can handle the peptide by cleaving the Q stretch. […] Since this experiment was performed with a small Q peptide, we next examined whether TPPII was able to prevent accumulation and aggregation of polyQ peptides derived from GFP-Ub-Q65. […] Some additional high molecular weight bands were present, representing oligomeric complexes. […] When testing two TPPII variants that have an altered conformation and lowered endo- peptidase activity, the levels of polyQ peptides (and resulting aggregates) increased again, showing that TPPII complex formation affects polyQ peptide degradation. […] This was achieved by either co-expressing TPPII or adding the specific inhibitor of TPPII, butabindide. […] Similarly, polyQ fragments generated by the proteasome upon degradation of polyQ expanded proteins were targeted by TPPII. […]

On to `O=S(=O)(F)Cc1ccccc1` [PMSF, phenylmethylsulfonyl], for which the “polyQ peptide levels despite DnaJB6” value in the data set on polyQ peptides is on record as “re-appearance of polyQ peptides”.
On to `CC(C)C[C@H](NC(=O)[C@H]1O[C@@H]1C(=O)O)C(=O)NCCCCN=C(N)N` [E-64], for which the “polyQ peptide levels despite DnaJB6” value in the data set on polyQ peptides is “re-appearance of polyQ peptides”.
As for “DnaJB6: member of the Hsp40/DnaJ heat shock protein family, co-expressed chaperone”, in the data set with HEK293T cells, the “aggregation on co-expression with GFP-Ub-Q65” value is “considerable decrease in aggregation”. Also, the “amount of polyQ peptides in the SDS-insoluble fraction” value in the data set with polyQ peptides (Q65) is “remarkably reduced”. The “polyQ peptides in the SDS-soluble fraction” value in the data set with polyQ peptides (Q65) (FIG. 8A and B) is recorded as “marked decrease”.
As for `CCCCNC(=O)[C@@H]1Cc2ccccc2N1C(=O)[C@@H](N)CC` [butabindide, reference compound], the polyQ peptide levels result in data set [1] is on record as “accumulation of polyQ peptides”.
Consider tripeptidyl peptidase II [TPPII], for which, in data set [1], the polyQ peptide levels entry is reported as “reduced polyQ levels”. Also, the “aggregated and low-molecular weight Q65 peptide levels” value in data set [1] (co-expression with GFP-Ub-Q65, immunoblot 1C2, FIG. 7) was “decrease in both aggregated and low-molecular weight Q65 peptides”.

B1: DnaJB8: member of the Hsp40/DnaJ heat shock protein family, co-expressed chaperone (protein, UniProt Q8NHS0 1-232, looked up)
DnaJ homolog subfamily B …: MANYYEVLGVQASASPEDIKKAYRKLALRWHPDKNPDNKEEAEKKFKLVSEAYEVLSDSKKRSLYDRAGCDSWRAGGGASTPYHSPFDTGYTFRNPEDIFREFFGGLDPFSFEFWDSPFNSDRGGRGHGLRGAFSAGFGEFPAFMEAFSSFNMLGCSGGSHTTFSSTSFGGSSSGSSGFKSVMSSTEMINGHKVTTKRIVENGQERVEVEEDGQLKSVTVNGKEQLKWMDSK
As for B1, in the data set on HEK293T cells, the “aggregation on co-expression with GFP-Ub-Q65” value is recorded as “considerable decrease in aggregation”. Also, the “amount of polyQ peptides in the SDS-insoluble fraction” value with polyQ peptides (Q65) is given as “remarkably reduced”.
